Tested on: primary rat mixed cortical cells
Assay: In vitro myelination assay (MBP positive myelin strands, fold myelin pixels above background)
Type: cell-based
Conditions: Rattus norvegicus, relative to baseline of no added compound; for fold induction at 1 µM: 1.0 μM compound, read-out: Fold myelin pixels above background, 1.0 μM; for fold induction at 10 µM: 10.0 μM compound, read-out: Fold myelin pixels above background, 10.0 μM
Outline: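 Compounds at 1.0 and 10.0 μM were incubated 14 days with dissociated P1 rat cortical cells, which were then fixed and immunostained for MBP. Myelination was scored as fold MBP myelin pixels per well over the no-compound baseline.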

CN1CCN(c2cc(Nc3ncn(-c4cccc(F)c4)n3)cc(C(F)(F)F)c2)CC1 [Compound 257, 1-(3-fluorophenyl)-N-[3-(4-methylpiperazin-1-yl)-5-(trifluoromethyl)phenyl]-1,2,4-triazol-3-amine]
fold induction at 1 µM: 100 to 1000 | fold induction at 10 µM: ≤ 1

COc1cc(Nc2ncn(-c3cccc(F)c3)n2)cc(N2CCN(C3COC3)CC2)c1 [Compound 258, 1-(3-fluorophenyl)-N-[3-methoxy-5-[4-(oxetan-3-yl)piperazin-1-yl]phenyl]-1,2,4-triazol-3-amine]
fold induction at 1 µM: 100 to 1000 | fold induction at 10 µM: 1 to 10

Cc1cc(Nc2ncn(-c3ccccc3)n2)cc(N2CCNC(C)C2)c1 (stereo not shown) [Compound 259, N-[3-methyl-5-(3-methylpiperazin-1-yl)phenyl]-1-phenyl-1,2,4-triazol-3-amine]
fold induction at 1 µM: 1000 to 10000 | fold induction at 10 µM: ≤ 1

Cc1cc(Nc2ncn(-c3ccccc3)n2)cc(C2CCN(C3COC3)C2)c1 (stereo not shown) [Compound 260, N-[3-methyl-5-[1-(oxetan-3-yl)pyrrolidin-3-yl]phenyl]-1-phenyl-1,2,4-triazol-3-amine]
fold induction at 1 µM: 1000 to 10000 | fold induction at 10 µM: ≤ 1

Cc1cc(Nc2ncn(-c3cc(F)cc(F)c3)n2)cc(C2CCN(C3CC3)CC2)c1 [Compound 261, N-[3-(1-cyclopropyl-4-piperidyl)-5-methyl-phenyl]-1-(3,5-difluorophenyl)-1,2,4-triazol-3-amine]
fold induction at 1 µM: 10 to 100 | fold induction at 10 µM: 10 to 100

Cc1cc(Nc2ncn(-c3cncc(Cl)c3)n2)cc(N2CCN(C)CC2)c1 [Compound 262, 1-(5-chloro-3-pyridyl)-N-[3-methyl-5-(4-methylpiperazin-1-yl)phenyl]-1,2,4-triazol-3-amine]
fold induction at 1 µM: 10 to 100 | fold induction at 10 µM: 100 to 1000

Cc1cc(Nc2ncn(-c3ccc(F)c(F)c3)n2)cc(N2CCN(C)CC2)n1 [Compound 263, N-[1-(3,4-difluorophenyl)-1,2,4-triazol-3-yl]-2-methyl-6-(4-methylpiperazin-1-yl)pyridin-4-amine]
fold induction at 1 µM: 10 to 100 | fold induction at 10 µM: 100 to 1000

CCc1cc(Nc2ncn(-c3cc(F)cc(F)c3)n2)cc(N2CCN(C3(C)COC3)CC2)c1 [Compound 264, 1-(3,5-difluorophenyl)-N-[3-ethyl-5-[4-(3-methyloxetan-3-yl)piperazin-1-yl]phenyl]-1,2,4-triazol-3-amine]
fold induction at 1 µM: 10 to 100 | fold induction at 10 µM: 10 to 100

Cc1cc(Nc2ncn(-c3ccc(F)c(F)c3)n2)cc(N2CCOCC2)n1 [Compound 265, N-[1-(3,4-difluorophenyl)-1,2,4-triazol-3-yl]-2-methyl-6-morpholino-pyridin-4-amine]
fold induction at 1 µM: 100 to 1000 | fold induction at 10 µM: 100 to 1000

CC(=O)N1CCCC(c2cc(C)cc(Nc3ncn(-c4cc(F)cc(F)c4)n3)c2)C1 (stereo not shown) [Compound 266, 1-[3-[3-[[1-(3,5-difluorophenyl)-1,2,4-triazol-3-yl]amino]-5-methyl-phenyl]-1-piperidyl]ethanone]
fold induction at 1 µM: 10 to 100 | fold induction at 10 µM: 100 to 1000

CNC1CCN(c2cc(C)cc(Nc3ncn(-c4cc(F)cc(F)c4)n3)c2)C1 (stereo not shown) [Compound 267, 1-(3,5-difluorophenyl)-N-[3-methyl-5-[3-(methylamino)pyrrolidin-1-yl]phenyl]-1,2,4-triazol-3-amine]
fold induction at 1 µM: 10 to 100 | fold induction at 10 µM: ≤ 1

Fc1cc(Nc2ncn(-c3cc(F)cc(F)c3)n2)cc(C2CCN(C3COC3)C2)c1 (stereo not shown) [Compound 268, 1-(3,5-difluorophenyl)-N-[3-fluoro-5-[1-(oxetan-3-yl)pyrrolidin-3-yl]phenyl]-1,2,4-triazol-3-amine]
fold induction at 1 µM: 100 to 1000 | fold induction at 10 µM: 1000 to 10000

Cc1cc(Nc2ncn(-c3ccc(F)cc3)n2)cc(N2CCCC2)c1 [Compound 269, 1-(4-fluorophenyl)-N-(3-methyl-5-pyrrolidin-1-yl-phenyl)-1,2,4-triazol-3-amine]
fold induction at 1 µM: 1 to 10 | fold induction at 10 µM: 10 to 100

Cc1cc(Nc2ncn(-c3cccnc3)n2)cc(C2COC2)c1 [Compound 270, N-[3-methyl-5-(oxetan-3-yl)phenyl]-1-(3-pyridyl)-1,2,4-triazol-3-amine]
fold induction at 1 µM: 100 to 1000 | fold induction at 10 µM: 100 to 1000

Cc1cc(Nc2ncn(-c3cncc(C)n3)n2)cc(N2CCN(C3COC3)CC2)c1 [Compound 271, N-[3-methyl-5-[4-(oxetan-3-yl)piperazin-1-yl]phenyl]-1-(6-methylpyrazin-2-yl)-1,2,4-triazol-3-amine]
fold induction at 1 µM: ≤ 1 | fold induction at 10 µM: ≤ 1

Cc1cc(Nc2ncn(-c3cccc(F)c3)n2)cc(N2CCCC2)c1 [Compound 272, 1-(3-fluorophenyl)-N-(3-methyl-5-pyrrolidin-1-yl-phenyl)-1,2,4-triazol-3-amine]
fold induction at 1 µM: 10 to 100 | fold induction at 10 µM: ≤ 1

Cc1cc(Nc2ncn(-c3ccccc3)n2)cc(C2CCN(CC(F)F)C2)c1 (stereo not shown) [Compound 273, N-[3-[1-(2,2-difluoroethyl)pyrrolidin-3-yl]-5-methyl-phenyl]-1-phenyl-1,2,4-triazol-3-amine]
fold induction at 1 µM: 1000 to 10000 | fold induction at 10 µM: ≤ 1

CCN1CCN(c2cc(C)cc(Nc3ncn(-c4ccccc4)n3)c2)CC1 [Compound 274, N-[3-(4-ethylpiperazin-1-yl)-5-methyl-phenyl]-1-phenyl-1,2,4-triazol-3-amine]
fold induction at 1 µM: 1000 to 10000 | fold induction at 10 µM: 1 to 10

Cc1cc(Nc2ncn(-c3cccnc3)n2)cc(N2CCN(C3COC3)CC2)c1 [Compound 275, N-[3-methyl-5-[4-(oxetan-3-yl)piperazin-1-yl]phenyl]-1-(3-pyridyl)-1,2,4-triazol-3-amine]
fold induction at 1 µM: 10 to 100 | fold induction at 10 µM: 100 to 1000

CCc1cc(Nc2ncn(-c3cccc(F)c3F)n2)cc(N2CCN(C3COC3)CC2)c1 [Compound 276, 1-(2,3-difluorophenyl)-N-[3-ethyl-5-[4-(oxetan-3-yl)piperazin-1-yl]phenyl]-1,2,4-triazol-3-amine]
fold induction at 1 µM: ≤ 1 | fold induction at 10 µM: 1 to 10

COc1nccc(-n2cnc(Nc3cc(C4CC4)cc(N4CCN(C5COC5)CC4)c3)n2)n1 [Compound 277, N-[3-cyclopropyl-5-[4-(oxetan-3-yl)piperazin-1-yl]phenyl]-1-(2-methoxypyrimidin-4-yl)-1,2,4-triazol-3-amine]
fold induction at 1 µM: 10 to 100 | fold induction at 10 µM: 100 to 1000

Cc1cc(Nc2ncn(-c3ccc(F)c(F)c3)n2)cc(NC2CCN(C3COC3)CC2)c1 [Compound 278, N3-[1-(3,4-difluorophenyl)-1,2,4-triazol-3-yl]-5-methyl-N1-[1-(oxetan-3-yl)-4-piperidyl]benzene-1,3-diamine]
fold induction at 1 µM: 100 to 1000 | fold induction at 10 µM: 1 to 10

Cc1cc(Nc2ncn(-c3cc(F)cc(F)c3)n2)cc(N2CCC3(CC2)COC3)c1 [Compound 279, 1-(3,5-difluorophenyl)-N-[3-methyl-5-(2-oxa-7-azaspiro[3.5]nonan-7-yl)phenyl]-1,2,4-triazol-3-amine]
fold induction at 1 µM: 100 to 1000 | fold induction at 10 µM: 100 to 1000

CC(=O)N1CCCN(c2cc(C)cc(Nc3ncn(-c4ccccc4)n3)c2)CC1 [Compound 280, 1-[4-[3-methyl-5-[(1-phenyl-1,2,4-triazol-3-yl)amino]phenyl]-1,4-diazepan-1-yl]ethanone]
fold induction at 1 µM: 1000 to 10000 | fold induction at 10 µM: 10 to 100

Cc1cc(Nc2ncn(-c3cccc(C#N)c3)n2)cc(N2CCCC2)c1 [Compound 281, 3-[3-(3-methyl-5-pyrrolidin-1-yl-anilino)-1,2,4-triazol-1-yl]benzonitrile]
fold induction at 1 µM: 1 to 10 | fold induction at 10 µM: ≤ 1

NC1CN(c2cc(F)cc(Nc3ncn(-c4ccc(F)cc4F)n3)c2)C1 [Compound 283, N-[3-(3-aminoazetidin-1-yl)-5-fluoro-phenyl]-1-(2,4-difluorophenyl)-1,2,4-triazol-3-amine]
fold induction at 1 µM: ≤ 1 | fold induction at 10 µM: ≤ 1

Cc1cc(Nc2ncn(-c3cc(F)cc(F)c3)n2)cc(N2CCC(N3CCOCC3)C2)c1 (stereo not shown) [Compound 284, 1-(3,5-difluorophenyl)-N-[3-methyl-5-(3-morpholinopyrrolidin-1-yl)phenyl]-1,2,4-triazol-3-amine]
fold induction at 1 µM: 1 to 10 | fold induction at 10 µM: 1 to 10

CC(C)Oc1cc(F)cc(-n2cnc(Nc3cc(C4CC4)cc(N4CCN(C5COC5)CC4)c3)n2)c1 [Compound 285, N-[3-cyclopropyl-5-[4-(oxetan-3-yl)piperazin-1-yl]phenyl]-1-(3-fluoro-5-isopropoxy-phenyl)-1,2,4-triazol-3-amine]
fold induction at 1 µM: 1 to 10 | fold induction at 10 µM: 10 to 100

CCOc1nccc(-n2cnc(Nc3cc(C4CC4)cc(N4CCN(C5COC5)CC4)c3)n2)n1 [Compound 286, N-[3-cyclopropyl-5-[4-(oxetan-3-yl)piperazin-1-yl]phenyl]-1-(2-ethoxypyrimidin-4-yl)-1,2,4-triazol-3-amine]
fold induction at 1 µM: 100 to 1000 | fold induction at 10 µM: 100 to 1000

Cc1cc(Nc2ncn(-c3cccc(C(F)(F)F)c3)n2)cc(N2CCN(C3COC3)CC2)c1 [Compound 287, N-[3-methyl-5-[4-(oxetan-3-yl)piperazin-1-yl]phenyl]-1-[3-(trifluoromethyl)phenyl]-1,2,4-triazol-3-amine]
fold induction at 1 µM: 100 to 1000 | fold induction at 10 µM: 100 to 1000

CC(C)(C)c1cc(Nc2ncn(-c3cnccn3)n2)cc(N2CCN(C3COC3)CC2)c1 [Compound 288, N-[3-tert-butyl-5-[4-(oxetan-3-yl)piperazin-1-yl]phenyl]-1-pyrazin-2-yl-1,2,4-triazol-3-amine]
fold induction at 1 µM: 1000 to 10000 | fold induction at 10 µM: 1000 to 10000

Cc1cc(Nc2ncn(-c3ccccc3)n2)cc(N2CCN(C3CCOCC3)CC2)c1 [Compound 289, N-[3-methyl-5-(4-tetrahydropyran-4-ylpiperazin-1-yl)phenyl]-1-phenyl-1,2,4-triazol-3-amine]
fold induction at 1 µM: 1000 to 10000 | fold induction at 10 µM: 1 to 10
